Read-outs that look alike come from different tables or passages of the source.
Assays:
[1] = tested on: NCX; experiment: NCX current (INCX) voltage clamp in intact isolated ventricular myocytes; type: cell-based, rabbit; details: ODSH 100 μg/ml; approximately −60 mV to +50 mV; n = 5; FIG. 7
Excerpt: The direct effects of ODSH on NCX were further measured by means of voltage clamp studies in intact isolated rabbit ventricular myocytes. […] This finding was initially surprising but is consistent with a previous report that heparin and heparan sulfate disaccharides can stimulate Ca^2+ extrusion by NCX in smooth muscle cell lines (Shinjo et al, 2002). […] We therefore studied the effects of ODSH on Na^+ loading.

[2] = tested on: blood coagulation (aPTT); experiment: Phase I bolus plus 72 hour infusion study: aPTT; type: in vivo, human; details: from relationship of aPTT change and ODSH level, FIG. 23
Procedure: A study was performed in eight (8) healthy adult male and female subjects to assess the effects of a bolus dose and 72 hour infusion of 2-O, 3-O desulfated heparin. The study was a Phase I study with a three day treatment period. Doses were adjusted to maintain an aPTT level of 40-45 seconds. Subjects were between the ages of 18 and 60, were not pregnant, and were normal in body weight. They all had normal coagulation function and hemoglobin values at baseline.
Subjects received an initial bolus of 8 mg/kg of ODSH over 15 minutes, followed by 72 hours continuous infusion beginning at 0.58 mg/kg/hr. For each subject ODSH as a 50 mg/ml formulation was diluted with normal saline and administered as a bolus infused over 15 minutes containing the calculated amount of ODSH the subject was to receive, followed by infusion of ODSH diluted in saline. The infusion dose was adjusted to maintain an aPTT of 40-45 seconds. […] Using values for aPTT and ODSH levels, pharmacokinetic parameters were calculated by noncompartmental methods using a commercial software program (PhAST 2.3-001). The following pharmacokinetic parameters were calculated as above: Cmax; Kel; tmax; AUC O-t; AUCinf, t1/2; CL; and Vdss.

[3] = tested on: anti-Xa; details: product of the procedure of U.S. Pat. No. 5,990,097; cited from earlier work
[4] = tested on: myeloperoxidase (MPO) activity; experiment: Porcine ischemia/reperfusion model: myeloperoxidase activity in myocardium; type: in vivo, pig; details: ODSH 45 mg/kg; FIG. 11
Excerpt: Arterial access was achieved via bilateral femoral artery cut-downs for the insertion of 8F sheaths. Central venous and carotid access was achieved via a neck incision to expose the external jugular vein and common carotid artery. Animals were then anticoagulated with 50 U/kg of unfractionated heparin to maintain an activated clotting time (ACT) between 250-350 seconds, prior to ischemia. A 7-8 Fr pigtail catheter was placed in the left ventricular cavity to measure pressure and for injection of 15 μneutron-activated microspheres. […] Baseline cardiodynamic and hemodynamic data were measured using a solid state transducer-tipped catheter in the left ventricle (Millar Instruments, Houston, Tex.) to measure left ventricular pressure, and a fluid-filled transducer connected to the side port of the femoral artery sheath to measure peripheral arterial pressure. Approximately 3-4 million neutron-activated microspheres (BioPhysics Assay Laboratory, Inc, Worcester, Ma) (15 μm) were delivered through a pig-tail catheter into the left ventricle over a 30 second period, to quantify regional myocardial blood flow (RMBF). […] Balloon occlusion time was 75 minutes with coronary occlusion confirmed by contrast angiography, ST segment changes on electrocardiography, and quantitatively confirmed by microspheres delivered at the end of ischemia, as described above. […]

[5] = in vivo
Procedure: A study was performed in 38 volunteer human subjects to assess the safety of escalating bolus doses of 2-O, 3-O desulfated heparin (ODSH). The study was a Phase I, randomized, double-blind, dose-escalation study with a single-day treatment period. Subjects were between the ages of 18 and 45, were not pregnant, and were normal in body weight. They all had normal coagulation function and hemoglobin values at baseline.
Two subjects also received an injection of fully anticoagulated unfractionated heparin for comparison. ODSH dose groups were run in a series, and safety and tolerance data were evaluated prior to the start of the next dose level (4, 8 12, 16 and 20 mg/kg bolus intravenous doses). Twenty eight (28) subjects randomly received ODSH and 9 subjects were randomized to receive placebo, with an additional two subjects receiving commercially available unfractionated heparin.
For each bolus dose, ODSH as a 50 mg/mL formulation was diluted with normal saline and a total volume of 50 ml was infused over 15 minutes containing the calculated amount of ODSH the subject was to receive. Placebo consisted of 50 mL of normal saline infused over 15 minutes. For subjects receiving heparin, 5,000 units (approximately 0.5 mg/kg) of heparin was diluted into 50 ml of normal saline and infused over 15 minutes.
Immediately before infusion and beginning 7 minutes after the start of each infusion, blood was drawn at periodic times for 24 hours to monitor the effect of infusion on the following laboratory studies: activated partial thromboplastin time (aPTT); prothrombin time (PT); activated clotting time (ACT); and ODSH plasma level. Serum chemistries and a complete blood count were checked immediately before infusion and at eight (8) and twenty-four (24) hours later. Using values for aPTT and ODSH levels, pharmacokinetic parameters were calculated by noncompartmental methods using a commercial software program (PhAST 2.3-001). The following pharmacokinetic parameters were calculated: • a) Maximum measured plasma concentration (Cmax); • b) First-order terminal elimination rate constant (Kel), calculated from a semi-log plot of the serum concentration versus time curve; this parameter was calculated by linear least-square regression analysis using the maximum number of points in the terminal log-linear phase (e.g., 3 or more non-zero serum concentrations); • c) Time of the maximum measured drug plasma concentration (tmax); • d) The area under the plasma concentration versus time curve from time 0 to the last observation (AUC 0-t), calculated by the linear trapezoidal method; • e) The area under the plasma concentration versus time curve from time 0 to infinity (AUCinf), which was calculated as the sum of AUC 0-t plus the ratio of the last measurable serum concentration to the elimination rate constant; • f) First-order terminal elimination (t1/2), calculated as 0.693/Kel; • g) Total body clearance (CL), calculated as Dose/AUCinf, and • h) Total volume of distribution (Vdss), calculated as MRT×CL.

[6] = tested on: blood coagulation (aPTT, ACT); experiment: Phase I bolus plus 12 hour infusion study: coagulation tests (aPTT, ACT); type: in vivo, human; details: all dosing regimens; FIG. 20
Procedure: A study was performed in twenty-four (24) healthy adult subjects to assess the effects of a bolus dose and 12 hour infusion of 2-O, 3-O desulfated heparin. The study was a Phase I, randomized, double-blind, dose escalation study with single-day treatment periods. Subjects were males between the ages of 18 and 45, and were normal in body weight. They all had normal coagulation function and hemoglobin values at baseline. […] Eighteen (18) subjects were randomized to receive ODSH and six (6) subjects were randomized to receive placebo. Subjects received either ODSH or placebo as described below in Table 13.
For each subject, ODSH as a 50 mg/ml formulation was diluted with normal saline and administered as a bolus infused over 15 minutes containing the calculated amount of ODSH the subject was to receive, followed by a constant infusion for 12 hours of ODSH diluted in saline. Placebo consisted of 50 mL of normal saline infused over 15 minutes, followed by normal saline infused for 12 hours. Immediately before infusion and after the start of each infusion, blood was drawn at periodic times (over a total 24 hour period) to monitor the effect of infusion on the following laboratory studies: activated partial thromboplastin time (aPTT); prothrombin time (PT); activated clotting time (ACT); and ODSH plasma level.

For 2-O, 3-O desulfated heparin [ODSH], the “effect on NCX current (INCX)” value [1] was “significant stimulation of exchange”, the “aPTT above baseline at ODSH blood concentrations of 100 μg/mL” value [2] was “approximately 50 seconds” and the “aPTT absolute value at ODSH blood concentrations of 100 μg/mL” value [2] was “about 75 seconds”. The anti-Xa anti-coagulant activity [3] was “less than 10 U/mg”, the “MPO activity in ischemic-reperfused myocardium” value [4] was “significantly reduced” and the “Mean clearance values, range over the dose groups” value ([5]; human, iv) was 0.172 to 0.257 mL/min/kg. For the same substance, the “Mean elimination half-life values, range over the dose groups” value ([5]; human, iv) was 1.93 to 2.72 h, the “Median tmax values, range over the dose groups” value ([5]; human, iv) was 0.37 to 0.88 h and the “AUC 0-t” value ([5]; human, iv, 4 mg/kg) was 307.2 µg·h/mL. The AUCinf ([5]; human, iv, 4 mg/kg) was 415.2 µg·h/mL, the CL ([5]; human, iv, 4 mg/kg) was 0.1709 ± 0.064973 mL/min/kg and the Cmax ([5]; human, iv, 4 mg/kg) was 130.76 µg/mL. It also gave an MRT ([5]; human, iv, 4 mg/kg) of 3.780 ± 1.6710 h, a Vdss ([5]; human, iv, 4 mg/kg) of 0.03495 ± 0.011679 L/kg and a t1/2 ([5]; human, iv, 4 mg/kg) of 2.585 ± 1.1225 h. The tmax ([5]; human, iv, 4 mg/kg) was 0.47 h, the “AUC 0-t” value ([5]; human, iv, 8 mg/kg) was 461.9 µg·h/mL and the AUCinf ([5]; human, iv, 8 mg/kg) was 629.2 µg·h/mL. It also gave a CL ([5]; human, iv, 8 mg/kg) of 0.2147 ± 0.039202 mL/min/kg, a Cmax ([5]; human, iv, 8 mg/kg) of 163.74 µg/mL and an MRT ([5]; human, iv, 8 mg/kg) of 2.775 ± 0.6087 h. It also gave a Vdss ([5]; human, iv, 8 mg/kg) of 0.03513 ± 0.00658 L/kg, a t1/2 ([5]; human, iv, 8 mg/kg) of 1.933 ± 0.4537 h and a tmax ([5]; human, iv, 8 mg/kg) of 0.37 h. The “AUC 0-t” value ([5]; human, iv, 12 mg/kg) was 619.1 µg·h/mL, the AUCinf ([5]; human, iv, 12 mg/kg) was 1086.5 µg·h/mL and the CL ([5]; human, iv, 12 mg/kg) was 0.1867 ± 0.036203 mL/min/kg. The Cmax ([5]; human, iv, 12 mg/kg) was 179.28 µg/mL, the MRT ([5]; human, iv, 12 mg/kg) was 3.894 ± 0.9516 h and the Vdss ([5]; human, iv, 12 mg/kg) was 0.04212 ± 0.00317 L/kg. For the same substance, the t1/2 ([5]; human, iv, 12 mg/kg) was 2.724 ± 0.6667 h, the tmax ([5]; human, iv, 12 mg/kg) was 0.88 h and the “AUC 0-t” value ([5]; human, iv, 16 mg/kg) was 886.9 µg·h/mL. The AUCinf ([5]; human, iv, 16 mg/kg) was 1075.8 µg·h/mL, the CL ([5]; human, iv, 16 mg/kg) was 0.25607 ± 0.067503 mL/min/kg and the Cmax ([5]; human, iv, 16 mg/kg) was 285.38 µg/mL. It also gave an MRT ([5]; human, iv, 16 mg/kg) of 3.287 ± 1.0560 h, a Vdss ([5]; human, iv, 16 mg/kg) of 0.04725 ± 0.007944 L/kg and a t1/2 ([5]; human, iv, 16 mg/kg) of 2.261 ± 0.8548 h. For the same substance, the tmax ([5]; human, iv, 16 mg/kg) was 0.50 h, the “AUC 0-t” value ([5]; human, iv, 20 mg/kg) was 1322.1 µg·h/mL and the AUCinf ([5]; human, iv, 20 mg/kg) was 1638.7 µg·h/mL. For the same substance, the CL ([5]; human, iv, 20 mg/kg) was 0.20877 ± 0.003483 mL/min/kg, the Cmax ([5]; human, iv, 20 mg/kg) was 366.73 µg/mL and the MRT ([5]; human, iv, 20 mg/kg) was 3.639 ± 0.6670 h. For the same substance, the Vdss ([5]; human, iv, 20 mg/kg) was 0.04556 ± 0.008256 L/kg, the t1/2 ([5]; human, iv, 20 mg/kg) was 2.637 ± 0.4765 h and the tmax ([5]; human, iv, 20 mg/kg) was 0.50 h. For the same substance, the “ODSH plasma levels produced” value [5] was over 300 µg/mL and the ACT increases [6] was “ACT increases providing adequate therapeutic anticoagulation necessary for the cardiac catheterization laboratory were observed in all dosing regimens”.

From US20090238852A1, “METHODS FOR CONTROLLING INTRACELLULAR CALCIUM LEVELS ASSOCIATED WITH AN ISCHEMIC EVENT” (University of Utah Research Foundation, priority 2008, published 2009)
